Laboratory results from patent US4081533A, “Method of reducing mammalian fertility and drugs therefor” (Regents of the University of California, priority 1976, dated 1978).
Entries after “also recorded” stand apart in the source; their conditions may differ. Where a name gives a salt, the structure may show the parent alone. Read-outs that look alike come from different tables or passages of the source. Positions of bridges follow the written chain, without caps; N, C: chain ends. Residues, ends and D or L forms follow the SMILES beside them.

Tests used:
ovulation = experiment: Ovulation in proestrus rats (ova flushed from oviducts and counted); assay type: in vivo, rat
Protocol: (§1) These subjects were administered various dosages of the peptides of the invention as well as control materials, i.e., saline solution alone, and the naturally occuring peptides, vasopressin and oxytocin, that are related to the cyclic nonapeptide, 8-arginine vasotocin. Both vasopressin and oxytocin are well documented in the literature. Vasopressin is very closely related to 8-arginine vastocin, and has the cyclic nonapeptide structure: [drawing 2] wherein the 3rd amino acid moiety is phenylalanine rather than isoleucine that occurs in the 8-arginine vasotocin. In all other respects the vasopressin peptide chain is identical to 8-arginine vasotocin. Vasopressin is found in the posterior lobe of the pituitary gland.
(§2) More specifically, in normal cycling female rats there is a dramatic surge in the level of luteinizing hormone (LH) in the blood on the afternoon of proestrus. This surge of LH can be detected by monitoring periodic blood samples. These samples are secured by inserting a cannula into the right atrium of the heart. 50 microliters of blood are withdrawn each hour for some 6 to 7 samples. The levels of LH therein is determined using radioimmunossay techniques. Under normal circumstances, ovulation occurs about 12 hours later. The oviducts are then removed and the ova are recovered therefrom by inserting a hypodermic into the tubal ostium and flushing with phosphate-buffered saline. Freed ova are collected in a micropipette and counted. In the tests, the normal cycling rats were administered both control saline, and various dosages of 8-arginine vasotocin, prolyl-arginyl-glycinamide, prolyl-lysyl-glycinamide, vasopressin and oxytocin.
(§3) In every instance, the peptide dosage was administered in saline via heart cannula at one hour intervals over a 4 hour period.

preovulatory surge of LH = experiment: Pre-ovulatory LH surge in proestrus rats (hourly blood samples, radioimmunoassay); assay type: in vivo, rat; conditions: for LH surge and ovulation inhibitory effect (in words): administered prior to ovulation, rats
Protocol: as §1, §2, §3

[1] = test system: Pre-Ovulatory Surge of Prolactin; experiment: Pre-ovulatory surge of prolactin in rats; assay type: in vivo, rat; conditions: for Inhibitory effect on prolactin surge (in words): summary of Table II
Protocol: 8-arginine vasotocin, vasopressin, and oxytocin were administered at various dosage levels and rates to a number of rats. Saline solution was utilized as a control.

[2] = rat, in vivo
Text: The level of nonapeptide or tripeptide in the body fluids necessary to inhibit the LH surge and subsequent ovulation will vary from species to species and from individual to individual. In this regard, however, the nonapeptide does appear to have at least 50-100 times the activity, on a weight basis, of the tripeptide. Therefore, effective dosage levels of the tripeptides are necessarily higher than the nonapeptides, by as much as two or three orders of magnitude. On the other hand, the tripeptide, being a much simpler molecular, is more easily metabolized, and the higher dosage requirements are easily tolerated and produce no side effects. […] A technique similar to that disclosed herein for the synthesis of the tripeptide may be utilized; although it will be recognized that the production of a nine membered peptide will be considerably more costly and time consuming that the production of the tripeptide. But such synthesis techniques are available to secure the 8-arginine vasotocin utilized in the present invention.

[3] = reason given for unsuitability in the method; cited from earlier work
[4] = dihydrochloride form, dosage 1 μg, same conditions as Table I
[5] = dosage 1μg/120 min, total dose 2 μg
[6] = dosage 1μ/30 min, total dose 7 μg
[7] = proestrus rats, dosage 0.1 μg in saline via heart cannula at one hour intervals over a 4 hour period, acetate salt
[8] = proestrus rats, dosage 1.0 μg in saline via heart cannula at one hour intervals over a 4 hour period, acetate salt
[9] = proestrus rats, dosage 5.0 μg in saline via heart cannula at one hour intervals over a 4 hour period, acetate salt
[10] = proestrus rats, dosage 0.6 mg in saline via heart cannula at one hour intervals over a 4 hour period, acetate salt

| SMILES | Presence of Prolactin Surge (%) [1, 5] [%] | Presence of Prolactin Surge (%) [1, 6] [%] | Inhibitory effect on prolactin surge (in words) [1] | Presence of Ova (%) (ovulation; [7]) | Presence of Ova (%) (ovulation; [8]) | LH surge and ovulation inhibitory effect (in words) (preovulatory surge of LH) | Presence of LH Surges (%) (preovulatory surge of LH; [7]) | Presence of LH Surges (%) (preovulatory surge of LH; [8]) | Presence of Ova (%) (ovulation; [10]) | Presence of LH Surges (%) (preovulatory surge of LH; [10]) | also measured |
| --- | --- | --- | --- | --- | --- | --- | --- | --- | --- | --- | --- |
| CC[C@H](C)[C@@H]1NC(=O)[C@H](Cc2ccc(O)cc2)NC(=O)[C@@H](N)CSSC[C@@H](C(=O)N2CCC[C@H]2C(=O)N[C@@H](CCCNC(=N)N)C(=O)NCC(N)=O)NC(=O)[C@H](CC(N)=O)NC(=O)[C@H](CCC(N)=O)NC1=O [8-arginine vasotocin-dihydrochloride] (H-CYIQNCPRG-NH2; disulfide 1-6) |  |  |  |  |  |  |  |  |  |  | Presence of Ova (%) (ovulation; [4]): 20%; Presence of LH Surges (%) (preovulatory surge of LH; [4]): 0% |
| CC[C@H](C)[C@@H]1NC(=O)[C@H](Cc2ccc(O)cc2)NC(=O)[C@@H](N)CSSC[C@@H](C(=O)N2CCC[C@H]2C(=O)N[C@@H](CCCNC(=N)N)C(=O)NCC(N)=O)NC(=O)[C@H](CC(N)=O)NC(=O)[C@H](CCC(N)=O)NC1=O [8-arginine-Vasotocin, 8-arginine vasotocin] (H-CYIQNCPRG-NH2; disulfide 1-6) | 0 | 4 | high inhibitory effect | 45 | 22 | effectively blocked | 34 | 5 |  |  | Presence of Prolactin Surge (%) ([1]; dosage 1μg/240 min, total dose 5 μg): 80%; Presence of Prolactin Surge (%) ([1]; dosage 1μ/60 min, total dose 4 μg): 14%; Effect on basal levels of luteinizing hormone in the blood (preovulatory surge of LH; basal LH, not the surge): does not appear to suppress the basal levels; Activity of the nonapeptide relative to the tripeptide (preovulatory surge of LH; on a weight basis): 50-100 times |
| CC[C@H](C)[C@@H]1NC(=O)[C@H](Cc2ccc(O)cc2)NC(=O)[C@@H](N)CSSC[C@@H](C(=O)N2CCC[C@H]2C(=O)N[C@@H](CC(C)C)C(=O)NCC(N)=O)NC(=O)[C@H](CC(N)=O)NC(=O)[C@H](CCC(N)=O)NC1=O [Oxytocin, reference compound] | 84 | 60 | the lowest effect |  | 100 | essentially inactive |  | 100 |  |  | Presence of Ova (%) (ovulation; [9]): 94%; Presence of LH Surges (%) (preovulatory surge of LH; [9]): 94% |
| N=C(N)NCCC[C@H](NC(=O)[C@@H]1CCCN1)C(=O)NCC(N)=O [Prolyl-arginyl-glycinamide, prolyl-arginyl-glycinamide] (H-Pro-Arg-Gly-NH2) |  |  |  |  |  | exhibits a similar luteinizing hormone suppressing effect that also inhibits ovulation; also recorded: high inhibition of the LH surge and ovulation |  |  | 42 | 25 | Side effects [2]: no noticable side effects |
| NCCCC[C@H](NC(=O)[C@@H]1CCCN1)C(=O)NCC(N)=O [Prolyl-lysyl-glycinamide, prolyl-lysyl-glycinamide] (H-Pro-Lys-Gly-NH2) |  |  |  |  |  |  |  |  | 30 | 15 | LH surge and ovulation inhibitory effect (in words) (preovulatory surge of LH; listed as Prolyl-Lysyl-Glycinamide): exhibits luteinizing hormone suppressing and anovulatory properties; LH surge and ovulation inhibitory effect (in words) (preovulatory surge of LH; listed as prolyl-lysyl-glycinamide): high inhibition of the LH surge and ovulation |
| NC(=O)CC[C@@H]1NC(=O)[C@H](Cc2ccccc2)NC(=O)[C@H](Cc2ccc(O)cc2)NC(=O)[C@@H](N)CSSC[C@@H](C(=O)N2CCC[C@H]2C(=O)N[C@@H](CCCN=C(N)N)C(=O)NCC(N)=O)NC(=O)[C@H](CC(N)=O)NC1=O [Vasopressin, reference compound] | 57 | 17 | a lesser effect | 94 | 62 | considerable activity | 94 | 37 |  |  | Side effects [3]: severe vasocontrictive side effects |
